Results as given in publication PMC3630091, “A Mechanistic Paradigm for Broad-Spectrum Antivirals that Target Virus-Cell Fusion” (PLoS Pathogens, 2013).
Like-named read-outs stand apart in the source and are kept apart here.

How the values were obtained:
NDV = experiment: microbe, parasite or virus in culture; assay type: cell-based, Newcastle disease virus; settings: read-out: IC50 ± SD (nM) (N=x) NDV
HIV = experiment: microbe, parasite or virus in culture; assay type: cell-based; settings: Human immunodeficiency virus 1, 10 min, read-out: IC50 ± SD (nM) (N=x) HIV
HSV = experiment: microbe, parasite or virus in culture; assay type: cell-based, Herpes simplex virus-1; settings: Human alphaherpesvirus 1, 10 min, read-out: IC50 ± SD (nM) (N=x) HSV
[1] = Absorbance spectra / UV-visible spectra integration; assay type: physicochemical; settings: for Abs Max (λmax): 100 µM in DMSO; for AUC (400-750 nm): integrated absorption divided by concentration, normalized relative to LJ001 (LJ001 = 100)
[2] = Singlet oxygen quantum yield measurements; assay type: physicochemical; settings: error is one standard deviation; for 1O2 QY 355 nm: in CD2Cl2, excitation 355 nm; for 1O2 QY 532 nm: in CD2Cl2, excitation 532 nm
[3] = Singlet oxygen quenching measurements; assay type: physicochemical; settings: 355 nm with C60 as external sensitizer; error is one standard deviation
[4] = Clinical observations after single dose in PK study; assay type: in vivo, female Balb/c mice; settings: single dose 2.5 mg/kg ip, about 15 min post administration
Experimental: Dose administration. […] These mice were replaced and the dose level was reduced to 5 mg/kg. […] Hypoactivity was the only clinical observation noted in some of the mice treated with the 3 test articles at 10 and 100 mg/kg po. […] These animals were replaced and administered with the lower ip dose level of 1.25 mg/kg and underwent blood collections. Mice received single ip doses of 1.25 mg/kg (JL109 and JL118) or 5 mg/kg (JL122) and po doses of 10 mg/kg (JL109, JL118, JL122), 50 mg/kg (JL109, JL118), or 100 mg/kg (JL109, JL118, JL122).

in vitro = settings: human
Pharmacokinetics in mice = settings: for MRT last / Tmax / AUC(0-t) / Cmax: female, Balb/c, mouse, in vivo; for AUC(0-t) / Cmax: po
HIV-1JR-CSF = assay type: cell-based
RVFV ZH501 = assay type: in vivo, Balb/c mice; settings: 20 pfu RVFV ZH501 IP; IP once a day for 7 days from 1 h post-challenge; JL118 1.25 mg/kg, JL122 and JL103 10 mg/kg
enveloped viruses = assay type: cell-based
[5] = Membrane partition into POPC LUV (fluorescence)
[6] = Membrane partition into HIV membrane-like mixture LUV (fluorescence)

SMILES | IC50 (HIV) | IC50 (NDV; avian paramyxovirus 1, 10 min) | IC50 (HSV) | Abs Max (λmax) [1] | AUC (400-750 nm) [1] | 1O2 QY 355 nm [2] | 1O2 QY 532 nm [2] | kT × 10-7 [3] | clinical observations [4] | CC50 (in vitro) | MRT last (Pharmacokinetics in mice) | Tmax (Pharmacokinetics in mice) | AUC(0-t) (Pharmacokinetics in mice; 10 mg/kg) | AUC(0-t) (Pharmacokinetics in mice; 50 mg/kg) | AUC(0-t) (Pharmacokinetics in mice; 100 mg/kg) | also measured
Cc1cn([C@H]2C[C@H](N=[N+]=[N-])[C@@H](CO)O2)c(=O)[nH]c1=O [AZT] | – | – | – | – | – | – | – | – | – | – | – | – | – | – | – | t1/2 (inhibition half-life, time-of-addition) (HIV-1JRCSF): > 8.33 h
CCN1C(=O)/C(=C/c2ccc(-c3ccccc3)o2)OC1=S [JL101] | – | – | – | – | – | – | – | – | – | – | – | – | – | – | – | IC50 (NDV): 8800 nM
CCN1C(=S)O/C(=C\c2ccc(-c3ccc(OC)cc3OC)o2)C1=S [JL109, (Z)-5-((5-(2,4-dimethoxyphenyl)furan-2-yl)methylene)-3-ethyloxazolidine-2,4-dithione] | 4.5 ± 4.8 nM | 3.8 ± 3.9 nM | 0.7 nM | 550 nm | 178 | 0.37 ± 0.02 | 0.38 ± 0.02 | 2.000 ± 0.100 M-1s-1 | deaths occurred in the initial 3 animals | 8510 nM | 4.5 to 10 h | 0.25 to 1 h | 354 ng·h/mL | 595 ng·h/mL | 538 ng·h/mL | Cmax (Pharmacokinetics in mice; 10 mg/kg, po 10 mg/kg): 88.2 ng/mL; Cmax (Pharmacokinetics in mice; 50 mg/kg, po 50 mg/kg): 127 ng/mL; Cmax (Pharmacokinetics in mice; 100 mg/kg, po 100 mg/kg): 78.2 ng/mL
CCN1C(=S)O/C(=C\c2ccc(-c3ccc(N(C)C)cc3)o2)C1=S [JL118, (Z)-5-((5-(4-(dimethylamino)phenyl)furan-2-yl)methylene)-3-ethyloxazolidine-2,4-dithione] | 11.7 ± 5.5 nM | 2.1 ± 1.4 nM | 10.1 ± 8.6 nM | 610 nm | 200 | 0.14 ± 0.01 | 0.15 ± 0.02 | 4.600 ± 0.300 M-1s-1 | deaths occurred in the initial 3 animals | 37000 nM | 5.3 to 11.4 h | 0.25 to 1 h | 1350 ng·h/mL | 841 ng·h/mL | 1160 ng·h/mL | total integrated absorption (AUC), times that of LJ001 ([1]; λ = 400 to 750 nm): 2 times; antiviral potency at physiological hematocrits (HIV-1JR-CSF): maintained their antiviral potency; time-to-death / survival compared to untreated controls (RVFV ZH501): moderate but significant delay in time-to-death; improved in vitro potency compared to LJ001 (enveloped viruses): 10-100 fold; improvements in relevant pharmacokinetic (PK) parameters compared to LJ001 (Pharmacokinetics in mice; half-life, AUC, bioavailability, clearance): > 10 fold; Kp at 10 min, 50 µM [5]: 2700; IL / Iw ([5]; POPC LUV, fluorescence intensity ratio from curve fitting): 233; Kp at 10 min, 50 µM [6]: 2010; IL / Iw ([6]; HIV-like mixture LUV, fluorescence intensity ratio from curve fitting): 488
